{"source": "patent US10793563B2", "about": "“GCN2 inhibitors and uses thereof” (Merck Patent GmbH, priority 2018, dated 2020)"}
{"molecular_target": "GCN2 kinase (Homo sapiens (Human), UniProt Q9P2K8)", "sequence (Q9P2K8 whole entry)": "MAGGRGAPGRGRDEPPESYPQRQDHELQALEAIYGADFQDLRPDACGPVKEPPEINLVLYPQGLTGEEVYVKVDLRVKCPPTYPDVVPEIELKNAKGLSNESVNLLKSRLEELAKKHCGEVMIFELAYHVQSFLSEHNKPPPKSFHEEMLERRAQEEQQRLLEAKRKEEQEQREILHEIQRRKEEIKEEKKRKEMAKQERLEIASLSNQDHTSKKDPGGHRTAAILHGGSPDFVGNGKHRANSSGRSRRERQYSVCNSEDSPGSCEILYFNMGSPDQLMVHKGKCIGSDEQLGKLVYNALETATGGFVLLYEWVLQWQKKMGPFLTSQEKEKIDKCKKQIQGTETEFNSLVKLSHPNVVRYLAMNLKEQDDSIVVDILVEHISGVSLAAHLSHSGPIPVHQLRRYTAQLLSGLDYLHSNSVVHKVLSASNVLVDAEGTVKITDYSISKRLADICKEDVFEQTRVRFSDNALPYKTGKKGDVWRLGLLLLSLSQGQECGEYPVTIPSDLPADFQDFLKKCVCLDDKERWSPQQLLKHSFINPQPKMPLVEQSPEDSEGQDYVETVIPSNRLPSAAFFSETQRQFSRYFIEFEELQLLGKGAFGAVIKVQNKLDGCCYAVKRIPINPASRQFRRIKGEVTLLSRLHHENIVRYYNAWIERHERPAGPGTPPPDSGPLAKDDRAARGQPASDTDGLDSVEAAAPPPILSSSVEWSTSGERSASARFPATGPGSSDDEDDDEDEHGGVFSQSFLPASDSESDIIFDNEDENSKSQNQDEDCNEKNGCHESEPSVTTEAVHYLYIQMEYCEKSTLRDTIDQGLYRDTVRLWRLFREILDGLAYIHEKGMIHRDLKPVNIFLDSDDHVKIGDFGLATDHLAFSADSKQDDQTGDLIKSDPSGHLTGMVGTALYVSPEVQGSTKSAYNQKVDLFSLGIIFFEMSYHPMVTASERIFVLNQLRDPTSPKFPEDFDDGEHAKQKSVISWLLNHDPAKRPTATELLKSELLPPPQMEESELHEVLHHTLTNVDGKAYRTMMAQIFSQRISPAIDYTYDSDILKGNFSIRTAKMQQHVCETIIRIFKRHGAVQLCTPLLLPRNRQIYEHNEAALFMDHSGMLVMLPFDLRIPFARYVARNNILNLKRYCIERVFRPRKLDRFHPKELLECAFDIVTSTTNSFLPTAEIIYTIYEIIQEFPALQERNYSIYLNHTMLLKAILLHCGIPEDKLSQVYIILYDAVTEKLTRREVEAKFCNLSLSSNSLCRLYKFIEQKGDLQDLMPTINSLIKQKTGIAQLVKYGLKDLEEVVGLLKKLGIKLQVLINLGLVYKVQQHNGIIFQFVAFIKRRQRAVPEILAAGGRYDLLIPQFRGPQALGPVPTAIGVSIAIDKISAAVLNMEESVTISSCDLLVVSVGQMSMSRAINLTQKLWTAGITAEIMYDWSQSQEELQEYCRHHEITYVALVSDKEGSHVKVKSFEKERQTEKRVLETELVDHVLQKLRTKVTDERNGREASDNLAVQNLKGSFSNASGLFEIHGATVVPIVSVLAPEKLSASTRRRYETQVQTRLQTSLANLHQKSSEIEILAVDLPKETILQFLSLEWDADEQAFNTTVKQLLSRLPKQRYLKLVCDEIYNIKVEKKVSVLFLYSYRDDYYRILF", "assay": "GCN2 Enzyme Inhibition Assay (Transcreener ADP2 fluorescence polarization)", "format": "biochemical", "details": "280 μM ATP, 200 μM (RS)7 peptide, 4 nM GCN2, 25° C.", "description": "(§1) Compounds were screened for their ability to inhibit GCN2 kinase activity using a Transcreener® ADP^2 fluorescence polarization assay that detects ADP levels (BellBrook Labs, WI). Assays were carried out in a buffer consisting of 25 mM Tris-HCl (pH 7.5), 50 mM NaCl, 10 mM MgCl2 and 1 mM DTT. […] Assays were carried out at 25° C. in the presence of a (typical) final concentration of 4 nM GCN2 kinase. An assay buffer containing GCN2 kinase and (RS)7 was prepared. […] The plate was incubated for 10 minutes at 25° C. prior to the addition of 4.7 μL of ATP stock buffer to initiate the enzyme reaction. The reaction was allowed to proceed for 1 hour at 25° C., prior to the addition of 10 μL detection buffer (consisting of appropriate concentrations of ADP^2 antibody and ADP Alexa633 tracer in 1× stop and detect buffer as supplied by BellBrook Labs). […] Percentage inhibition of enzyme activity was then calculated at each compound dose. IC50 and Ki(app) (using known assay and kinetic parameters) values were calculated from percentage inhibition data using a non-linear, tight-binding algorithm. All data analysis was undertaken using the Screener® software package (Genedata, Switzerland).", "units": {"IC50": "nM"}}
{"smiles": "Cc1noc([C@H]2CN(c3ccnc(-c4cnc5ccc(C(F)F)cn45)n3)C[C@@H](C)O2)n1", "note": "[I-497, (2R,6R)-4-(2-(6-(difluoromethyl)imidazo[1,2-a]pyridin-3-yl)pyrimidin-4-yl)-2-methyl-6-(3-methyl-1,2,4-oxadiazol-5-yl)morpholine]", "IC50": "100 to 1000"}
{"smiles": "C[C@H]1CN(c2nccc(-c3cnc4ccc(C(F)(F)F)cn34)n2)C[C@@H](c2nn[nH]n2)O1", "note": "[I-189, (2S,6S)-2-methyl-6-(2H-tetrazol-5-yl)-4-(4-(6-(trifluoromethyl)imidazo[1,2-a]pyridin-3-yl)pyrimidin-2-yl)morpholine]", "IC50": "10 to 100"}
{"smiles": "C[C@H]1[C@H](CNS(C)(=O)=O)NCCN1c1ccnc(-c2cnc3ccc(C(F)(F)F)cn23)n1", "note": "[I-471, N-(((2 S,3 S)-3-methyl-4-(2-(6-(trifluoromethyl)imidazo[1,2-a]pyridin-3-yl)pyrimidin-4-yl)piperazin-2-yl)methyl)methanesulfonamide]", "IC50": "100 to 1000"}
{"smiles": "C[C@@H]1CN(c2ccnc(-c3cnc4ccc(C(F)(F)F)cn34)n2)C[C@H](C)N1CC1CCOCC1", "note": "[I-462, 3-(4-(cis-3,5-dimethyl-4-((tetrahydro-2H-pyran-4-yl)methyl)piperazin-1-yl)pyrimidin-2-yl)-6-(trifluoromethyl)imidazo[1,2-a]pyridine]", "IC50": "100 to 1000"}
{"smiles": "NC(=O)[C@@H]1CN(c2ccnc(-c3cnc4ccc(Cl)cn34)n2)CCN1C1CC1", "note": "[I-350, (s)-4-(2-(6-chloroimidazo[1,2-a]pyridin-3-yl)pyrimidin-4-yl)-1-cyclopropylpiperazine-2-carboxamide]", "IC50": "100 to 1000"}
{"smiles": "FC(F)(F)c1ccc2ncc(-c3nccc(N4CCN(C5CCOCC5)C(c5cn[nH]c5)C4)n3)n2c1", "note": "(stereo not drawn) [I-456, 3-(4-(3-(1H-pyrazol-4-yl)-4-(tetrahydro-2H-pyran-4-yl)piperazin-1-yl)pyrimidin-2-yl)-6-(trifluoromethyl)imidazo[1,2-a]pyridine]", "IC50": "10 to 100"}
{"smiles": "C[C@H]1[C@@H](C(N)=O)NCCN1c1ccnc(-c2cnc3ccc(C(F)(F)F)cn23)n1", "note": "[I-435, (2S,3 S)-3-methyl-4-(2-(6-(trifluoromethyl)imidazo[1,2-a]pyridin-3-yl)pyrimidin-4-yl)piperazine-2-carboxamide]", "IC50": "< 10"}
{"smiles": "C[C@@H]1C[C@@H](c2cn[nH]c2)CN(c2nccc(-c3cnc4ccc(Cl)cn34)n2)C1", "note": "(stereo in doubt) [I-195, 6-chloro-3-(2-((3R,5S)-3-methyl-5-(1H-pyrazol-4-yl)piperidin-1-yl)pyrimidin-4-yl)imidazo[1,2-a]pyridine]", "IC50": "10 to 100"}
{"smiles": "CC(C)(C)OC(=O)NC1CN(c2ccnc(-c3cnc4ccc(Cl)cn34)n2)CC[C@H]1O", "note": "(stereo in doubt) [I-243, tert-butyl ((3R,4R)-1-(2-(6-chloroimidazo[1,2-a]pyridin-3-yl)pyrimidin-4-yl)-4-hydroxypiperidin-3-yl)carbamate]", "IC50": "100 to 1000"}
{"smiles": "C[C@@H]1CN(c2nccc(-c3cnc4ccc(C(F)(F)F)cn34)n2)C[C@H](c2nn[nH]n2)O1", "note": "[I-190, (2R,6R)-2-methyl-6-(2H-tetrazol-5-yl)-4-(4-(6-(trifluoromethyl)imidazo[1,2-a]pyridin-3-yl)pyrimidin-2-yl)morpholine]", "IC50": "100 to 1000"}
{"smiles": "Cc1cnc(N2CCC[C@H](C(N)=O)C2)nc1-c1cnc2ccc(Cl)cn12", "note": "[I-174, (S)-1-(4-(6-chloroimidazo[1,2-a]pyridin-3-yl)-5-methylpyrimidin-2-yl)piperidine-3-carboxamide]", "IC50": "10 to 100"}
{"smiles": "Cc1nn(C)cc1[C@@H]1C[C@H](C)CN(c2nccc(-c3cnc4ccc(C(F)(F)F)cn34)n2)C1", "note": "[I-141, 3-(2-((3S,5S)-3-(1,3-dimethyl-1H-pyrazol-4-yl)-5-methylpiperidin-1-yl)pyrimidin-4-yl)-6-(trifluoromethyl)imidazo[1,2-a]pyridine]", "IC50": "100 to 1000"}
{"smiles": "NC(=O)C1CC(F)CN(c2ccnc(-c3cnc4ccc(C(F)(F)F)cn34)n2)C1", "note": "(stereo not drawn) [I-229, 5-fluoro-1-(2-(6-(trifluoromethyl)imidazo[1,2-a]pyridin-3-yl)pyrimidin-4-yl)piperidine-3-carboxamide]", "IC50": "< 10"}
{"smiles": "FC(F)(F)c1ccc2ncc(-c3nccc(N4CCN(CC5COC5)C(c5cn[nH]c5)C4)n3)n2c1", "note": "(stereo not drawn) [I-374, 3-(4-(4-(oxetan-3-ylmethyl)-3-(1H-pyrazol-4-yl)piperazin-1-yl)pyrimidin-2-yl)-6-(trifluoromethyl)imidazo[1,2-a]pyridine]", "IC50": "< 10"}
{"smiles": "CC1C(C(N)=O)NCCN1c1ccnc(-c2cnc3cc(F)c(C4CC4)cn23)n1", "note": "(stereo not drawn) [I-427, 4-(2-(6-cyclopropyl-7-fluoroimidazo[1,2-a]pyridin-3-yl)pyrimidin-4-yl)-3-methylpiperazine-2-carboxamide]", "IC50": "10 to 100"}
{"smiles": "CC1CN(c2ccnc(-c3cnc4ccc(Cl)cn34)n2)C(C)C(c2cn[nH]c2)N1", "note": "(stereo not drawn) [I-122, 6-Chloro-3-(4-(2,5-dimethyl-3-(1H-pyrazol-4-yl)piperazin-1-yl)pyrimidin-2-yl)imidazo[1,2-a]pyridine]", "IC50": "< 10"}
{"smiles": "Cc1nn(C)cc1[C@H]1CN(c2nccc(-c3cnc4ccc(C(F)(F)F)cn34)n2)C[C@H](C)O1", "note": "[I-156, (2S,6S)-2-(1,3-dimethyl-1H-pyrazol-4-yl)-6-methyl-4-(4-(6-(trifluoromethyl)imidazo[1,2-a]pyridin-3-yl)pyrimidin-2-yl)morpholine]", "IC50": "100 to 1000"}
{"smiles": "Cc1noc([C@@H]2CN(c3ccnc(-c4cnc5cc(F)c(C6CC6)cn45)n3)C[C@H](C)O2)n1", "note": "[I-341, (2S,6S)-4-(2-(6-cyclopropyl-7-fluoroimidazo[1,2-a]pyridin-3-yl)pyrimidin-4-yl)-2-methyl-6-(3-methyl-1,2,4-oxadiazol-5-yl)morpholine]", "IC50": "100 to 1000"}
{"smiles": "Cc1nn(C)cc1C(=O)N1CCN(c2ccnc(-c3cnc4ccc(C(F)(F)F)cn34)n2)C[C@@H]1C", "note": "[I-480, (S)-(1,3-dimethyl-1H-pyrazol-4-yl)(2-methyl-4-(2-(6-(trifluoromethyl)imidazo[1,2-a]pyridin-3-yl)pyrimidin-4-yl)piperazin-1-yl)methanone]", "IC50": "100 to 1000"}
{"smiles": "NC(=O)[C@@H]1CCCN(c2nccc(-c3cnc4ccc(C(F)(F)F)cn34)n2)C1", "note": "[I-152, (R)-1-(4-(6-(trifluoromethyl)imidazo[1,2-a]pyridin-3-yl)pyrimidin-2-yl)piperidine-3-carboxamide]", "IC50": "10 to 100"}
{"smiles": "CC1C(C(N)=O)NCCN1c1ccnc(-c2cnc3ccc(Cl)cn23)n1", "note": "(stereo not drawn) [I-451, 4-(2-{6-chloroimidazo[1,2-a]pyridin-3-yl}pyrimidin-4-yl)-3-methylpiperazine-2-carboxamide]", "IC50": "10 to 100"}
{"smiles": "CC1CN(c2ccnc(-c3cnc4ccc(C(F)(F)F)cn34)n2)CC(C)N1C1COC1", "note": "(stereo not drawn) [I-234, 3-(4-(3,5-dimethyl-4-(oxetan-3-yl)piperazin-1-yl)pyrimidin-2-yl)-6-(trifluoromethyl)imidazo[1,2-a]pyridine]", "IC50": "10 to 100"}
{"smiles": "OCc1cn(C2CCCN(c3ccnc(-c4cnc5ccc(C(F)(F)F)cn45)n3)C2)nn1", "note": "(stereo not drawn) [I-382, (1-(1-(2-(6-(trifluoromethyl)imidazo[1,2-a]pyridin-3-yl)pyrimidin-4-yl)piperidin-3-yl)-1H-1,2,3-triazol-4-yl)methanol]", "IC50": "100 to 1000"}
{"molecular_target": "GCN2 kinase (Homo sapiens (Human), UniProt Q9P2K8)", "assay": "GCN2 Enzyme Inhibition Assay (Transcreener ADP2 fluorescence polarization)", "format": "biochemical", "details": "Ki(app); 280 μM ATP, 200 μM (RS)7 peptide, 4 nM GCN2, 25° C.", "description": "as §1", "units": {"Ki": "nM"}}
{"smiles": "O=C1NCC2CN(c3ccnc(-c4cnc5ccc(Cl)cn45)n3)CCN12", "note": "(stereo not drawn) [I-97, 7-(2-{6-chloroimidazo[1,2-a]pyridin-3-yl}pyrimidin-4-yl)-octahydroimidazo[1,5-a]pyrazin-3-one]", "Ki": "10 to 100"}
